Results: patent US20260132165A1, “MODIFIED NUCLEOSIDE ANALOGUE AND USE THEREOF, AND NUCLEOSIDE ANALOGUE-CONTAINING DOUBLE-STRANDED OLIGONUCLEOTIDE AND USE THEREOF” (RIGERNA THERAPEUTICS (BEIJING) CO., LTD., priority 2023, published 2026)

Tests used:
target gene SOD1 [1] = experiment: Test Example 4: lipid conjugated siRNA sequences with different carbon chain lengths, SOD1 in mouse brain, lateral ventricle administration; type: in vivo, C57BL/6j mice; design: Right hemisphere Mean value of inhibition rate / Left hemisphere Mean value of inhibition rate: unit not given here; details: D5; for Left hemisphere Mean value of inhibition rate: left hemisphere (non-administration side); for Left hemisphere Mean value of inhibition rate / Right hemisphere Mean value of inhibition rate: lateral ventricle; for Right hemisphere Mean value of inhibition rate: right hemisphere (administration side)
Experimental: 6-8 Week-old C57BL/6j mice were randomly grouped by body weight. Mice in each group were administered with siRNA by lateral ventricle administration, with an administration dose per mouse depending on a specific test. Taking Bregma in mouse brain as point 0 (origin), coordinates of right ventricle were found using the cerebral stereotaxic apparatus and position was marked on surface of skull (position of lateral ventricle was AP (anteroposterior, bregma anterior and posterior): −0.58 mm, ML (mediolateral, left and right of middle raphe): −1.2 mm, DV (dorsoventral, up and down cerebral dura mater plane): −2.2 mm). A dental electric drill was used to drill in the skull above a position of interest, and then medicament was injected into the lateral ventricle by a micro-dosing pump, wherein a total injection volume was 5 μL, and injection duration was 10 min. Needle was retained for 5 min after completion of injection, and then slowly withdrawn. Afterwards, needle hole was sealed with biomedical glue, and then head skin was adhered. After animals woke up, the animals were returned back to animal house and further fed. PBS control group was administered with the same volume of siRNA-free PBS solution. The day of administration was recorded as 0 day (D0), and the mice were sacrificed at observation point after the administration. Different parts of brain region were respectively taken and stored in the RNAlater.
(§1) RNA extraction: the above tissue samples were taken out from the RNAlater, and smashed for 60 s in Tissuelyser type II full-automatic tissue homogenizer, and total RNAs of various tissue samples were extracted using the full-automatic nucleic acid extraction instrument and the nucleic acid extraction kit from Zhejiang Hanwei Science and Technology Co. Ltd. according to methods described in instructions.
(§2) Reverse transcription reaction: 1 μg of the extracted total RNAs of the tissue samples were taken, and configured into 20 μL of reverse transcription system according to a method described in kit instructions by using a reverse transcription kit (Reverse Transcription System, A3500) from Promega Corporation and selecting Oligo (dT)15 reverse transcription primers, and the reverse transcription reaction was completed. After the reaction was ended, 80 μL of RNase-Free water was added into the reverse transcription system to provide cDNA solution for Real-time PCR detection.
(§3) Real-time PCR detection: 20 μL of Real-time PCR reaction system per PCR detection well was configured according to a method described in kit instructions using SYBR™ Select Master Mix (Catalog number: 4472908) reagent from ABI company. Each detection system contained 5 μL of cDNA template obtained from the above reverse transcription reaction, 10 μL of SYBR™ Select Master Mix, 0.5 μL of 10 μM upstream primers, 0.5 μL of 10 μM downstream primers, and 4 μL of RNase-Free H2O. The configured reaction system was subjected to Real-time PCR amplification on ABI StepOnePlus PCR instrument by a three-step method, wherein an amplification procedure was pre-denaturation at 95° C. for 10 min, then denaturation at 95° C. for 30 s, annealing at 60° C. for 30 s, and extension at 72° C. for 30 s; and processes of denaturation, annealing, and extension were repeated for 40 cycles. Gene expression differences were calculated by the ΔΔCt method after completion of the procedure.
In the real-time fluorescence quantitative PCR method, relative quantitative calculation of remaining expression level and inhibition rate of gene mRNA of interest in various test groups was performed by the ΔΔCt method, and the calculation method is as follows: […]

target gene SOD1 [2] = experiment: Test Example 9: inhibitory activity of lipid conjugated siRNA sequences on SOD1 in mouse muscle tissues; type: in vivo, C57BL/6j mice; details: D14; for Diaphragm % Mean value of inhibition rate / Heart % Mean value of inhibition rate / Left quadriceps muscle % Mean value of inhibition rate: tail vein injection 5 mg/kg; for Left quadriceps muscle % Mean value of inhibition rate: left hind leg quadriceps muscle; for inhibitory activity compared with the NM200 conjugated reference sequence RZ899076: heart tissues; for inhibitory activity compared with the NM200 conjugated reference sequence RZ899076 / inhibitory action on the left quadriceps muscle and diaphragm: tail vein 5 mg/kg
Experimental: as §1, §2, §3
(§4) In the real-time fluorescence quantitative PCR method, relative quantitative calculation of remaining expression level and inhibition rate of gene mRNA of interest in various test groups was performed by the ΔΔCt method, and the calculation method is as follows:
The present test example evaluated, by an evaluation method for inhibitory activity on a target gene in mice, the inhibitory activity of siRNA sequence RZ899090 with the sense strand with the NM073 conjugation at Position 4, siRNA sequence RZ899091 with the sense strand with the NM074 conjugation at Position 4, siRNA sequence RZ899078 with the sense strand with the NM202 conjugation at Position 6 and siRNA reference sequence RZ899093 with the sense strand with the Uhd conjugation at Position 4, siRNA reference sequence RZ899076 with the sense strand with the NM200 conjugation at Position 4 on the target gene SOD1 of interest in muscle tissues in different parts of mice.
6-8 Week-old C57BL/6j mice were randomly grouped by body weight, 5 per group, 6 groups in total. Mice in each group were dosed with the above siRNA conjugates by tail vein injection, with an administration dose of 5 mg/kg per mouse, and an administration volume of 150 μL. PBS control group was administered with the same volume of siRNA conjugate-free PBS solution. The day of administration was recorded as D0, and 5 mice in each group were sacrificed on D14 after administration. Tissues such as left hind leg quadriceps muscle, diaphragm, and heart tissues were respectively taken and stored in the RNAlater. RNA extraction, reverse transcription, and real-time fluorescence quantitative detection were performed on various tissues according to the above method, and gene expression differences were calculated by the above ΔΔCt method.

target gene SOD1 [3] = experiment: Test Example 6: inhibitory activity of NM073, NM074 conjugated siRNA sequences on SOD1 by intrathecal administration to rats; type: in vivo, SD rats; details: D28
Experimental: 6-8 Week-old SD rats were randomly grouped by body weight. Rats in each group were administered with siRNA by intrathecal administration, with an administration dose of 900 μg per rat. Injection was administered from rat spinal cord L5-L6, with an administration volume of 40 μL. Needle was retained for 2 min after completion of injection, and then slowly withdrawn. PBS control group was administered with the same volume of siRNA conjugate-free PBS solution. The day of administration was recorded as 0 day (D0), and the rats were sacrificed at observation point after administration. Different segments of spinal cord and different regions of brain were respectively taken and stored in the RNAlater.
as §1, §2, §3, §4
The present test example evaluated, by an evaluation method for inhibitory activity on a target gene by intrathecal administration to rats, the inhibitory activity of siRNA sequence RZ899090 with the NM073 conjugation at Position 4, siRNA sequence RZ899091 with the NM074 conjugation at Position 4 and siRNA control sequence RZ899093 with the Uhd conjugation on the target gene SOD1 of interest in spinal cord and brain of rats. The above conjugation vectors were different in that NM073 was C18 aliphatic chain and NM074 was C20 aliphatic chain.
6-8 Week-old SD rats were randomly grouped by body weight, 5 per group, 4 groups in total. Rats in each group were dosed with the above siRNA conjugates by intrathecal administration, with an administration dose of 900 μg per rat, and an administration volume of 40 μL. PBS control group was administered with the same volume of siRNA conjugate-free PBS solution. The day of administration was recorded as D0, and the rats were sacrificed on D28 after administration. […]

Substance	Left hemisphere Mean value of inhibition rate (target gene SOD1 [1]; 150 μg per mouse)	Right hemisphere Mean value of inhibition rate (target gene SOD1 [1]; 150 μg per mouse)	Diaphragm % Mean value of inhibition rate (target gene SOD1 [2]) [%]	Heart % Mean value of inhibition rate (target gene SOD1 [2]) [%]	Left quadriceps muscle % Mean value of inhibition rate (target gene SOD1 [2]) [%]	inhibitory activity compared with the NM200 conjugated reference sequence RZ899076 (target gene SOD1 [2])	inhibitory action on the left quadriceps muscle and diaphragm (target gene SOD1 [2])	inhibitory activity compared with the vector-free siRNA sequence RX599002 (target gene SOD1 [1]; left and right hemisphere, lateral ventricle 150 μg per mouse)	activity compared with Uhd conjugated reference sequence RZ899093 and NM200 (C22) conjugated reference sequence RZ899076 (target gene SOD1 [1]; right hemisphere (administration side) and left hemisphere (non-administration side), 150 μg per mouse)	Cerebellum % Mean value of inhibition rate (target gene SOD1 [3]; cerebellum, intrathecal, 900 μg per rat) [%]	Cortex % Mean value of inhibition rate (target gene SOD1 [3]; cerebral cortex, intrathecal, 900 μg per rat) [%]	Hippocampus % Mean value of inhibition rate (target gene SOD1 [3]; hippocampus, intrathecal, 900 μg per rat) [%]	level of inhibition on the target gene compared with the Uhd control conjugate (RZ899093) (target gene SOD1 [3]; intrathecal 900 μg per rat)	Cervical segment % Mean value of inhibition rate (target gene SOD1 [3]; spinal cord cervical segment, intrathecal, 900 μg per rat) [%]	Lumbar segment % Mean value of inhibition rate (target gene SOD1 [3]; spinal cord lumbar segment, intrathecal, 900 μg per rat) [%]	Thoracic segment % Mean value of inhibition rate (target gene SOD1 [3]; spinal cord thoracic segment, intrathecal, 900 μg per rat) [%]
RZ899076: siRNA reference sequence with the sense strand with the NM200 (C22) conjugation at Position 4; SEQ ID NO: 18 / 24 (sense UUUNAAUCCUCACUCUAAA; antisense UUUAGAGUGAGGAUUAAAAUG; NM200 (C22) conjugate at sense position 4; modified_base 1..2 OTHER; 2'-methoxy and 5'-thiophosphate modified nucleotides; modified_base 3 OTHER; 2'-methoxy modified nucleotide; modified_base 4 OTHER; n is the synthetic nucleotide analog NM200 as described in the disclosure.; modified_base 5..6 OTHER; 2'-methoxy modified nucleotides; modified_base 7..10 OTHER; 2'-fluoro modified nucleotides; modified_base 11..19 OTHER; 2'-methoxy modified ; modified_base 1 OTHER; 2'-methoxy and 5'-thiovinylphosphonate modified nucleotide; modified_base 2 OTHER; 2'-fluoro and 5'-thiophosphate modified …) [reference compound]	65.25	79.02	74.58	51.69	60.97	–	–	–	–	–	–	–	–	–	–	–
RZ899078: siRNA sequence with the sense strand with the NM202 (C22) conjugation at Position 6; SEQ ID NO: 20 / 24 (sense UUUUANUCCUCACUCUAAA; antisense UUUAGAGUGAGGAUUAAAAUG; NM202 (C22) conjugate at sense position 6; modified_base 1..2 OTHER; 2'-methoxy and 5'-thiophosphate modified nucleotides; modified_base 3..5 OTHER; 2'-methoxy modified nucleotides; modified_base 6 OTHER; n is the synthetic nucleotide analog NM202 as described in the disclosure.; modified_base 7..10 OTHER; 2'-fluoro modified nucleotides; modified_base 11..19 OTHER; modified_base 1 OTHER; 2'-methoxy and 5'-thiovinylphosphonate modified nucleotide; modified_base 2 OTHER; 2'-fluoro and 5'-thiophosphate modified nucleotide; modified_base 6 OTHER;)	30.24	52.15	47.67	68.69	32.10	superior inhibitory activity	certain inhibitory action	–	–	–	–	–	–	–	–	–
RZ899090: siRNA sequence with the sense strand with the NM073 (C18) conjugation at Position 4; SEQ ID NO: 15 / 23 (sense UUUNAAUCCUCACUCUAAA; antisense UUUAGAGUGAGGAUUAAAAUG; NM073 (C18) conjugate at sense position 4; modified_base 1..2 OTHER; 2'-methoxy and 5'-thiophosphate modified nucleotides; modified_base 3 OTHER; 2'-methoxy modified nucleotide; modified_base 4 OTHER; n is the nucleotide analog NM073 as described in the disclosure.; modified_base 5..6 OTHER; 2'-methoxy modified nucleotides; modified_base 7..10 OTHER; 2'-fluoro modified nucleotides; modified_base 11..19 OTHER; modified_base 1 OTHER; 2'-methoxy and 5'-thiovinylphosphonate modified nucleotide; modified_base 2 OTHER; 2'-fluoro and 5'-thiophosphate modified nucleotide; modified_base 3..5 OTHER; …)	67.87	78.49	43.77	67.88	33.16	superior inhibitory activity	certain inhibitory action	superior inhibitory activity	substantially comparable or superior activity	56.97	−15.00	35.35	comparable level of inhibition in the spinal cord segment and cerebellum	69.98	93.93	94.17
